Data as given in PubChem BioAssay (NCI).
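Compound exposure: 48 hours, 5 concentrations, 96-well plates. At the TGI there is no net growth.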

Experiments:
Test in all cases: growth of human tumour cells (NCI), 48 h
RXF 393 renal = system: RXF 393 renal
IGROV1 ovarian = system: IGROV1 ovarian
NCI-H23 lung = system: NCI-H23 lung
HS 578T breast = system: HS 578T breast
SW-620 colon = system: SW-620 colon
SF-539 CNS = system: SF-539 CNS
K-562 leukemia = system: K-562 leukemia
TK-10 renal = system: TK-10 renal
SN12C renal = system: SN12C renal
KM12 colon = system: KM12 colon
CCRF-CEM leukemia = system: CCRF-CEM leukemia
OVCAR-8 ovarian = system: OVCAR-8 ovarian
DU-145 prostate = system: DU-145 prostate
HOP-92 NSCLC = system: HOP-92 NSCLC
MDA-MB-231 breast = system: MDA-MB-231 breast
A498 renal = system: A498 renal

SMILES | TGI (RXF 393 renal) [µM] | TGI (IGROV1 ovarian) [µM] | TGI (NCI-H23 lung) [µM] | TGI (HS 578T breast) [µM] | TGI (SW-620 colon) [µM] | TGI (SF-539 CNS) [µM] | TGI (K-562 leukemia) [µM] | TGI (TK-10 renal) [µM] | TGI (SN12C renal) [µM] | TGI (KM12 colon) [µM] | TGI (CCRF-CEM leukemia) [µM] | TGI (OVCAR-8 ovarian) [µM] | TGI (DU-145 prostate) [µM] | TGI (HOP-92 NSCLC) [µM] | TGI (MDA-MB-231 breast) [µM] | TGI (A498 renal) [µM]
O=C(O)CN1CCNCCN(CC(=O)O)CCNCC1 | > 100 | > 100 | > 100 | > 100 | > 100 | > 100 | > 100 | > 100 | > 100 | > 100 | > 100 | > 100 | > 100 | > 100 | > 100 | > 100
CN(C)CCSC(=Nc1ccccc1)N1C=COC=C1 | 72.8 | 33.4 | > 73.6 | > 100 | 43.5 | > 89 | > 100 | > 100 | 64.6 | > 100 | > 100 | > 63.3 | > 100 | 73.2 | 41.1 | > 100
COc1ccc(-n2nnc3c(C#N)c(-c4ccccc4)c(C)n3c2=O)cc1 | 93.8 | > 100 | > 100 | > 100 | > 100 | > 100 | > 100 | > 100 | > 100 | > 100 | 58.5 | > 100 | > 100 | > 100 | 81.6 | > 100
CN(C)CCCc1cccnc1 | > 100 | > 100 | > 100 | > 100 | > 100 | – | > 100 | > 100 | > 100 | > 100 | > 100 | > 100 | > 100 | > 100 | > 100 | > 100
C[C@@H](C(=O)O)c1ccc(-c2ccccc2)c(F)c1 | > 100 | > 100 | > 100 | > 100 | > 100 | > 100 | > 100 | > 100 | > 100 | > 100 | > 100 | > 100 | > 100 | > 100 | > 100 | > 100
CC(=O)Nc1ccc2c3c(cc(O)c2c1)N(C(=O)CCCC(=O)Nc1ccc2c4c(cc(O)c2c1)N(C(=O)OC(C)(C)C)CC4CCl)CC3CCl (stereo unspecified) | 10.6 | > 50 | 16.7 | > 12.1 | > 50 | > 50 | > 31.4 | 35 | > 13.2 | 22.7 | 0.599 | > 50 | > 50 | > 15.1 | 3.74 | 2.63
COc1ccc(/C=C/C(=O)c2nc3ccccc3[nH]2)cc1 | 35.3 | 25.9 | – | > 77.2 | 49.1 | 26.7 | > 100 | 47.2 | 73.9 | 19.8 | > 100 | 51.1 | 45.6 | 35.6 | 48.9 | > 82.7
CC1=NN(C(=O)CC(=O)Nc2ccccc2C)C(=O)C1N=Nc1ccc(S(=O)(=O)c2ccc(N=NC3C(=O)N(C(=O)CC(=O)Nc4ccccc4C)N=C3C)cc2)cc1 (stereo unspecified) | > 100 | > 100 | > 100 | > 100 | – | > 100 | > 100 | > 100 | > 100 | > 100 | > 100 | > 100 | > 100 | > 100 | > 100 | > 100
NC(=O)Cc1ncn(-c2ccccc2)n1 | > 100 | > 100 | > 100 | > 100 | > 100 | > 100 | > 100 | > 100 | > 100 | > 100 | > 100 | > 100 | > 100 | > 100 | > 100 | > 100
O=C(Cn1c(C(=O)/C=C/c2ccco2)nc2ccccc21)c1ccc(Cl)cc1 | > 100 | 57.1 | 28.1 | 24.6 | > 100 | > 100 | 51 | 85.8 | 61.5 | 47.1 | 27.4 | – | > 100 | > 100 | 59.8 | 44.4
Cc1c(C)c(S(=O)(=O)N(CCCCCN)OCCCN)c(C)c2c1OC(C)(C)CC2 | 71.9 | 11 | 33 | 28.4 | > 40.2 | > 100 | > 59.7 | 37.8 | > 100 | 8.93 | > 23.5 | > 50 | > 70.5 | 67.6 | 31.7 | 40.9
COc1cc(CNc2nc3ccccc3nc2-c2cccs2)cc(OC)c1OC | > 100 | > 100 | 65.5 | 74.8 | > 100 | > 100 | 97.7 | > 100 | 37.8 | > 100 | 52.2 | > 100 | > 100 | 10.1 | > 100 | > 100
CCc1ccc(CCC(=O)O)nc1 | > 100 | > 100 | > 100 | > 100 | > 100 | > 100 | > 100 | > 100 | > 100 | > 100 | > 100 | > 100 | > 100 | > 100 | > 100 | > 100
COC(=O)c1cc(C)n2c1CS[C@@H]2c1ccccc1 | 55.5 | > 100 | > 100 | > 100 | > 100 | – | > 100 | > 100 | > 100 | > 100 | > 100 | > 100 | > 100 | 76.8 | > 100 | 88
O/N=C(\C=N\O)c1ccc2c(c1)Sc1ccccc1O2 | 36 | – | 60.3 | > 100 | 78.7 | 82.4 | 85.4 | 84.1 | 37.1 | > 100 | 7.43 | 74.8 | > 100 | 36.8 | 38.4 | 41.6
Cn1c(=O)nc2n(CCO)ccnc-2c1=O | > 100 | > 100 | > 100 | > 100 | > 100 | > 100 | > 100 | > 100 | > 100 | > 100 | > 100 | > 100 | > 100 | > 100 | > 100 | > 100
CCOC(=O)C1=C(OS(=O)(=O)C(F)(F)F)CCCC1 | > 100 | > 100 | > 100 | > 100 | > 100 | > 100 | > 100 | > 100 | – | > 100 | > 100 | > 100 | > 100 | > 100 | > 100 | > 100
Oc1ccc2ccccc2c1-c1c(Nc2ccccc2)ccc2ccccc12 | 34.3 | 18.7 | 30 | 41.1 | 26.8 | 29.7 | 41 | 32.1 | > 61.2 | 37.3 | 44.7 | 33.8 | 32.3 | > 46.5 | 28.1 | 36.2
O=C(N1CCOCC1)C1(c2ccccc2)CCNCC1 | > 100 | > 100 | > 100 | > 100 | > 100 | > 100 | > 100 | > 100 | > 100 | > 100 | 78.8 | > 100 | > 100 | > 100 | > 100 | > 100
O=C(CC(=O)N(C(=O)c1ccccc1)c1ccc(Cl)cc1)N/N=C\c1ccccc1O | > 100 | > 100 | > 100 | 81.3 | > 100 | > 100 | > 100 | > 100 | > 100 | > 100 | > 100 | > 100 | > 100 | 75 | > 100 | > 100
Brc1ccccc1/C=C\C1(c2ccccc2)OCCO1 | 27.7 | 29.3 | 20.5 | 17.3 | – | 25.7 | > 100 | 31.7 | 27.4 | 7.17 | > 33.2 | 24.5 | 26.7 | 46.9 | 25.4 | 25.9
CCOC(=O)C1(Cc2ccccc2)Cc2cc3c(cc2C1=O)CCC3 (stereo unspecified) | > 100 | > 100 | > 100 | > 100 | > 100 | > 100 | > 100 | > 100 | > 100 | > 100 | > 100 | > 100 | > 100 | > 100 | > 100 | > 100
COc1ccc(-c2nc(N)c(C#N)c3c2CCSc2ccc(C)cc2-3)cc1OC | > 100 | > 91.2 | > 61 | 52.9 | > 100 | 58.9 | 13.7 | > 100 | 44.4 | 34.2 | 23.6 | > 73.6 | > 67.2 | 55 | 35.8 | > 63.2
CC(C)=CCC[C@](C)(O)[C@H]1CC[C@]2(C)[C@@H]1[C@H](O)C[C@@H]1[C@@]3(C)CC[C@H](O[C@@H]4O[C@H](CO)[C@@H](O)[C@H](O)[C@H]4O)C(C)(C)[C@@H]3CC[C@]12C | 32.2 | 29.8 | 38 | 47 | 36.6 | 38.8 | 38.1 | 39.6 | 32.9 | 33.3 | 43.8 | 33.6 | 35.1 | 33.7 | 36.4 | 35.4
